Reference: patent EP3991729A1, “USE OF AMLEXANOX IN PREPARING ANTI-HEPATITIS VIRUS DRUG” (Marine Biomedical Research Institute Of Qingdao Co., Ltd., priority 2019, dated 2020)

Legend:
hepatitis B virus [1] = experiment: HBV genomic DNA replication in HepG2 cells transfected with linear HBV genomic DNA, quantitative PCR of circular HBV DNA; assay type: cell-based, hepatitis B virus (genotype B); conditions: 10µM, HepG2, 96 hours, Figure 1
Experimental: After 96 hours, cells were divided into two groups, with genomic DNA extracted from one. From the other, free DNA was extracted using HIRT extraction, and linear DNA was removed using DNA exonuclease (NEB). Circular HBV DNA and genomic GAPDH were detected by quantitative PCR. The highest value of circular HBV DNA was defined as 100% (n=5).

hepatitis B virus [2] = experiment: Mouse venous hypertension model (genotype B), HBV genomic DNA in liver by fluorescence quantitative PCR; assay type: in vivo, Wild-type mice (C57/B6); conditions: 50 mg/kg/day oral gavage, 11th day after infection, Figure 5
From the text: . On the 11th day after infection, the mice were sacrificed, the livers of the mice were isolated, DpnI was transferred to exclude source DNA, and HBV genomic DNA in the livers of the mice was detected by fluorescence quantitative PCR (n=5).

hepatitis B virus [3] = experiment: HBV replication in HepAD38 cell model, qPCR of cccDNA, core particle DNA and supernatant HBV DNA; assay type: cell-based; conditions: 20µM, 10µM and 5µM, HepAD38, 96 and 144 hours, Figures 10, 11, 12
Experimental: 2×10^5 HepAD38 cells that were stably expressing HBV with good growth status were seeded in collagen pretreated 6-well plates, and the corresponding concentrations of the test substances were added: final concentration of 1µM for entecavir (ETV) and a final concentration of 20µM, 10µM, and 5µM for amlexanox (AML), respectively. Two groups of controls were also set up, one with solvent only (DMF) and one with antibiotic only (tetracycline). Three replicate wells were set for all groups. After 96 hours and 144 hours of test article addition, 500 µL of cell culture supernatant was used to extract DNA from the supernatant, and the amount of HBV DNA in the supernatant was detected by qPCR. After 144h, cells were harvested and lysed in Lysis buffer A (50 mM Tris-HCl, pH 7.4, 1 mM EDTA, and 1% NP-40). The supernatant and pellet of the lysates were collected, respectively, from which DNA was extracted and quantified by quantitative PCR. Linear DNA was removed by DNA exonuclease (NEB) after DNA extraction from the cell lysate pellet, so only circular DNA (cccDNA) was examined (Figure 10). Viral DNA in the supernatant of cell lysates was defined as core particle DNA (Figure 11).

3TC/ETV-resistant HBV = experiment: Mouse venous hypertension model, serum HBsAg by ELISA (Example 13, Figure 17); assay type: in vivo, male C57 mice; conditions: 150 mg/day (converted adult dose, 22.8 mg/kg/day in mice), oral gavage, five days
From the text: The specific method was based on the instructions of the ELISA kit.

hepatitis B virus [4] = experiment: HBV transgenic mouse model, serum HBsAg by ELISA; assay type: in vivo, male C57BL/6-HBV transgenic mice; conditions: 48 mg/kg intragastric once daily for 35 days, Figure 18
Experimental: Ten male C57BL/6-HBV transgenic mice (provided by Beijing Vitalstar Biotechnology Co., Ltd.) aged six weeks were randomly divided into two groups (control group, n=5; administration group, n=5).
Route of administration: Intragastric administration, 1mL sterile syringe was used for administration.
Dosing frequency: The drug was administered once daily for 35 consecutive days, with free access to food and water.
Dose-volume: 10 mL/kg. The dose-volume for each animal was determined based on the most recent body weight before administration.
The serum was separated and diluted 5000 times with PBS, respectively. The ELISA kit detected the concentration of HBV surface antigen (HBsAg). The OD value at 450 nm was measured on a microplate reader.
The inhibition rate was calculated according to the following formula: Inhibition rate = [(OD450controlwell−OD450dosewell)/OD450 control; well] × 100% [formula]

A549 cells = experiment: Cytotoxicity test, MTT assay; assay type: cell-based; conditions: Homo sapiens, A549, 72 h, read-out: Inhibition (%) A549
Experimental: (§1) […]. Various cells in the logarithmic growth phase were seeded in 96-well plates at 6,000 cells/well and cultured for 24h. […]. The dosage of DMSO in the solvent control group was based on the maximum dose of 0.1% used in the test group, with four duplicate wells for each concentration. Cells were treated with the drug for 72h and then added with 20µL 5 mg/mL MTT, cultured at 37°C for 4h, after added 100 µ L triple solution (10% SDS, 5% isobutanol, 12 mM hydrochloric acid), 96-well cell culture plate was placed in an incubator containing 5% CO2 at 37 ± 1°C overnight. OD value at 570nm was measured on a microplate reader.
(§2) The inhibition rate of tumor cell growth was calculated according to the following formula: Inhibition rate(%) = [(OD570controlwell−OD570dosewell)/OD570controlwell] × 100. [formula]

HCT-116 cells = experiment: Cytotoxicity test, MTT assay; assay type: cell-based
Experimental: as §1, §2

MCF7 cells = experiment: Cytotoxicity test, MTT assay; assay type: cell-based
Experimental: as §1, §2

MKN45 cells = experiment: Cytotoxicity test, MTT assay; assay type: cell-based
Experimental: as §1, §2

THP-1 cells = experiment: Cytotoxicity test, MTT assay; assay type: cell-based; conditions: Homo sapiens, THP-1, 72 h, read-out: Inhibition (%) THP -1
Experimental: as §1, §2

B and T cells = experiment: Immune cells in blood of HBV-infected mice, flow cytometry; conditions: 4, 8, 16 mg/kg/time, twice a day, oral gavage, day 9, Figure 19
Experimental: (§3) Six-week-old male C57 mice were rapidly injected with 10µg/mouse of viral genomic DNA (genotype A) by tail vein injection in a short period. Viral infection was established using a venous hypertension model and randomly divided into groups. […] At the same time, a blank control was set up, and oral administration in uninfected mice was equivalent to the model group.
On day 9, mice were sacrificed to collect blood stained with flow antibody after fission red. All cells were treated with anti-FcγRIII/ II (purchased from BD Biosciences) in PBS for 30 min. CD3e-FITC (purchased from BD Biosciences). CD4-PE, CD8a-APC-Vio770, and CD34-FITC (GE). CD19-APC, CD11b-PE-Cyanine7, and CD117-efflor 450 (purchased from eBioscience). After staining, the samples were suspended using 500µL PBS and analyzed by BD Aria III flow cytometer.

[5] = system: alanine aminotransferase (ALT); experiment: Mouse venous hypertension model (genotype A), serum alanine aminotransferase (ALT) activity, colorimetric kit; conditions: 25-200 mg/day (converted adult dose), once a day oral gavage, Figure 16
Experimental: as §3
On days 1, 3, and 7 of administration, an appropriate amount of blood was collected from the tail vein of mice in each group. On day 9, the remaining peripheral blood was collected after the mice were sacrificed. All blood samples were centrifuged to obtain serum, divided into two portions. One was used to detect the concentration of HBsAg by ELISA, and the other was used to detect the enzyme activity of alanine aminotransferase (ALT) by alanine aminotransferase kit (colorimetric method) (Nanjing Jiancheng Bioengineering Institute).

[6] = Homo sapiens, HCT-116, 72 h, read-out: Inhibition (%) HCT-116
[7] = Homo sapiens, MCF7, 72 h, read-out: Inhibition (%) MC F7
[8] = Homo sapiens, MKN-45, 72 h, read-out: Inhibition (%) MKN 45

`CC(C)c1ccc2oc3nc(N)c(C(=O)O)cc3c(=O)c2c1` [amlexanox, Amlexanox] was tested, and the “Circular HBV DNA (hepatitis B virus genomic DNA replication)” value (hepatitis B virus [1]) was “inhibits hepatitis B virus genomic DNA replication in cell models with effects comparable to existing clinical drugs”, the “HBV genomic DNA in the livers of the mice” value (hepatitis B virus [2]) was “can significantly inhibit the load of viral DNA, and its effect is not lower than that of clinically used nucleotide-like drugs lamivudine and entecavir” and the “HBV DNA (cccDNA, core particle DNA, viral DNA in cell culture supernatant)” value (hepatitis B virus [3]) was “significantly inhibits hepatitis B virus replication in the HepAD38 cell model”. For the same molecule, the “HBsAg level in the blood” value (3TC/ETV-resistant HBV) was “significantly decreased”, the “HBV surface antigen (HBsAg) in serum” value (hepatitis B virus [4]) was “could inhibit HBsAg level in transgenic mice” and the inhibition at 3.125 µM (A549 cells) was 3.55%. It also gave an inhibition at 6.25 µM (A549 cells) of 1.31%, an inhibition at 12.5 µM (A549 cells) of 0.65% and an inhibition at 25 µM (A549 cells) of 0%. For the same molecule, the inhibition at 50 µM (A549 cells) was 1.08%, the inhibition at 100 µM (A549 cells) was 4.54% and the cytotoxicity (HCT-116 cells; HCT-116, 100 µM, 72h) was “some cytotoxicity”. The inhibition at 3.125 µM (HCT-116 cells; [6]) was 0%, the inhibition at 6.25 µM (HCT-116 cells; [6]) was 0% and the inhibition at 12.5 µM (HCT-116 cells; [6]) was 0.11%. The inhibition at 25 µM (HCT-116 cells; [6]) was 1.17%, the inhibition at 50 µM (HCT-116 cells; [6]) was 6.41% and the inhibition at 100 µM (HCT-116 cells; [6]) was 31.1%. The inhibition at 3.125 µM (MCF7 cells; [7]) was 1.03%, the inhibition at 6.25 µM (MCF7 cells; [7]) was 0.86% and the inhibition at 12.5 µM (MCF7 cells; [7]) was 1.22%. It also gave an inhibition at 25 µM (MCF7 cells; [7]) of 3.8%, an inhibition at 50 µM (MCF7 cells; [7]) of 16.4% and an inhibition at 100 µM (MCF7 cells; [7]) of 43.5%. For the same molecule, the cytotoxicity (MCF7 cells; MCF7, 100 µM, 72h) was “some cytotoxicity”, the inhibition at 3.125 µM (MKN45 cells; [8]) was 0% and the inhibition at 6.25 µM (MKN45 cells; [8]) was 3.61%. For the same molecule, the inhibition at 12.5 µM (MKN45 cells; [8]) was 4.9%, the inhibition at 25 µM (MKN45 cells; [8]) was 9.22% and the inhibition at 50 µM (MKN45 cells; [8]) was 13.9%. For the same molecule, the inhibition at 100 µM (MKN45 cells; [8]) was 30.9%, the cytotoxicity (MKN45 cells; MKN45, 100 µM, 72h) was “some cytotoxicity” and the inhibition at 3.125 µM (THP-1 cells) was 0%. For the same molecule, the inhibition at 6.25 µM (THP-1 cells) was 0%, the inhibition at 12.5 µM (THP-1 cells) was 0% and the inhibition at 25 µM (THP-1 cells) was 0%. The inhibition at 50 µM (THP-1 cells) was 0%, the inhibition at 100 µM (THP-1 cells) was 7.44% and the “effect on immune cells (B and T cells) in blood” value (B and T cells) was “had an inhibitory effect on both B and T cells, and the inhibitory effect was dose-dependent”. The “enzyme activity of alanine aminotransferase (ALT) in serum” value [5] was “can effectively reduce alanine aminotransferase activity”.
